# Experimental data reported in patent US7763626B2, “Compositions and method for enhancing the therapeutic activity of opiods in treatment of pain” (Trustees of Dartmouth College, priority 2004, dated 2010).
# Assays:
# Assay type in all cases: in vivo, rat
# [1] = system: GLAST; assay: Immunohistochemical assessment of glutamate transporters in spinal cord; details: day 12 after L5 spinal nerve transection; propentofylline 10 μg i.t. daily
# Method: (§1) Experiments were performed to determine how propentofylline-induced suppression of glial activation contribute to reduced behavioral hypersensitivity after nerve injury. In a preventative paradigm, 10 μg of propentofylline (Sigma) to male Sprague-Dawley rats in 40 μl of sterile saline, or saline vehicle alone was administered intrathecally (i.t.) by lumbar puncture at the L4/5 level under brief halothane anesthesia (n=6-8/group). Treatment began one hour prior to L5 spinal nerve transection and continued daily in the evening until day 4 or 12 post-transection. Rats received either an L5 spinal nerve transection or sham surgery on day 0. The development of mechanical allodynia was monitored as described above in the morning at approximately 15 hours post-propentofylline or saline injection. […]
# (§2) For assessment of GFAP, GLT-1 and GLAST immunoreactivity, a separate group of animals (n=4/treatment) were anesthetized and transcardially perfused with 0.1 M PBS (phosphate-buffered saline), pH 7.4, followed by 4% paraformaldehyde in PBS on day 12 post-L5 spinal nerve transection. […] The sections were examined with an Olympus fluorescence microscope, and images were captured with a Q-Fire cooled camera. […]
# [2] = system: GLT-1; assay: as above; details: twelve days after L5 spinal nerve transection; propentofylline 10 μg i.t. daily
# Method: as §1, §2
# [3] = system: GLT-1 mRNA; assay: Real time RT-PCR of ipsilateral lumbar spinal cord after L5 spinal nerve transection; details: daily intrathecal propentofylline 10 μg
# Method: (§3) Experiments were performed to determine how propentofylline-induced suppression of glial activation contribute to reduced behavioral hypersensitivity after nerve injury. In a preventative paradigm, 10 μg of propentofylline (Sigma) to male Sprague-Dawley rats in 40 μl of sterile saline, or saline vehicle alone was administered intrathecally (i.t.) by lumbar puncture at the L4/5 level under brief halothane anesthesia (n=6-8/group). Treatment began one hour prior to L5 spinal nerve transection and continued daily in the evening until day 4 or 12 post-transection. Rats received either an L5 spinal nerve transection or sham surgery on day 0. The development of mechanical allodynia was monitored as described above in the morning at approximately 15 hours post-propentofylline or saline injection. Rats were euthanized on day 4 or 12 post-transection and tissue was further processed by real time RT-PCR, Western blot, or immunohistochemistry for determination of levels and rate of synthesis of the glutamate transporters GLT-1 and GLAST.
# (§4) Tissue was collected from 4-5 rats/group on postoperative days 4 or 12. In order to obtain both mRNA and protein from the same tissue sample, the L5 region of the spinal cord (ipsilateral to the injury), was isolated and placed in PBS supplemented with protease inhibitor cocktail (1:1000, Sigma, St. Louis, Mo.) and RNase inhibitor (0.75 U/μL Ambion, Austin, Tex.). […]
# (§5) Real time RT-PCR reactions were carried out in a total reaction volume of 25 uL containing a final concentration of 1.5 U Platinum Taq DNA polymerase (Invitrogen); 20 mM Tris HCl (pH 8.4); 50 mM KCl; 3 mM MgCl2; 200 uM dGTP, dCTP, and dATP; 400 uM dUTP and 1 U of UDG (uracyl DNA glycosylase); 900 nM of forward and reverse primers; 300 nM Taqman probe; and 5 uL of a 10-fold dilution of cDNA (50 ng) from the RT step. […] The iCycler Multicolor Real-Time PCR detection system (Bio-Rad) was used to quantify PCR product. The fluorescence and threshold values obtained were used to compare the relative amount of target mRNA in experimental groups to those of controls (Livak and Schmittgen 2001). […]
# [4] = system: GLAST mRNA; assay: as above; details: day 4; compared to L5 spinal nerve transection alone; did not attain statistical significance
# Method: as §3, §4, §5
compound,measurement,setting,value
CCCn1cnc2c1c(=O)n(CCCCC(C)=O)c(=O)n2C [propentofylline],GLAST immunoreactivity on the ipsilateral side,[1],did not enhance
same,"GLT-1 immunoreactivity, ipsilateral versus contralateral dorsal horns",[2],no qualitative difference
same,GLT-1 mRNA level,"[3]; day 4 post-transection, vs sham-operated and L5 nerve transected rats",significantly increased
same,GLT-1 mRNA level,"[3]; day 12 post-transection, vs L5 nerve transected rats",significantly increased
same,GLAST mRNA level,[4],slight decrease
